Measured values from ChEMBL document CHEMBL1201862, “PubChem BioAssay data set” (2004).
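48-hour exposure; five concentrations; linearly interpolated endpoints. At the GI50, growth is halved.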 Calls of active or inactive are those of the source. Cut-off read from the data, not from the text of the source: active = GI50 up to about 1.1 µM and inactive = higher.

Legend:
Assay in all cases: NCI anticancer screen, dose series, 48 h
A549 = system: A549
MDA-MB-231 = system: MDA-MB-231
DU-145 = system: DU-145
Hs-578T = system: Hs-578T
COLO 205 = system: COLO 205
HT-29 = system: HT-29
HCT-116 = system: HCT-116
SK-MEL-28 = system: SK-MEL-28
OVCAR-5 = system: OVCAR-5
NCI-H522 = system: NCI-H522
UACC-62 = system: UACC-62
A498 = system: A498
PC-3 = system: PC-3
T47D = system: T47D
OVCAR-8 = system: OVCAR-8
SN12C = system: SN12C
SW-620 = system: SW-620
BT-549 = system: BT-549
CAKI-1 = system: CAKI-1
MDA-MB-435 = system: MDA-MB-435

Measured: GI50

NCCC1([N+](=O)[O-])CCNCC1
inactive: A549 > 100 µM | MDA-MB-231 > 100 µM | DU-145 > 100 µM | Hs-578T > 100 µM | COLO 205 > 100 µM | HT-29 > 100 µM | HCT-116 > 100 µM | SK-MEL-28 > 26.8 µM | OVCAR-5 > 100 µM | NCI-H522 > 86.5 µM | UACC-62 > 100 µM | A498 > 100 µM | PC-3 > 100 µM | T47D > 100 µM | OVCAR-8 > 100 µM | SN12C > 100 µM | SW-620 > 100 µM | BT-549 > 100 µM | CAKI-1 > 100 µM | MDA-MB-435 > 100 µM

O/N=C1/C2CC3CC1(c1ccccc1)CC(/C3=N/O)/C2=N\O (stereo not given)
inactive: A549 > 100 µM | MDA-MB-231 > 100 µM | DU-145 > 100 µM | Hs-578T > 100 µM | COLO 205 > 100 µM | HT-29 > 100 µM | HCT-116 > 100 µM | SK-MEL-28 > 100 µM | OVCAR-5 > 100 µM | NCI-H522 > 100 µM | UACC-62 > 100 µM | A498 > 100 µM | PC-3 95.9 µM | T47D > 100 µM | OVCAR-8 > 100 µM | SN12C > 100 µM | SW-620 > 100 µM | BT-549 > 100 µM | CAKI-1 > 100 µM | MDA-MB-435 > 100 µM

CC(C)(C)C(=O)CP(=O)(O)O
inactive: A549 > 100 µM | MDA-MB-231 > 100 µM | DU-145 > 100 µM | Hs-578T > 100 µM | COLO 205 > 100 µM | HT-29 > 100 µM | HCT-116 > 100 µM | SK-MEL-28 > 100 µM | OVCAR-5 > 100 µM | NCI-H522 > 100 µM | UACC-62 > 100 µM | A498 > 100 µM | PC-3 > 100 µM | T47D > 100 µM | OVCAR-8 > 100 µM | SN12C > 100 µM | SW-620 > 100 µM | BT-549 > 100 µM | CAKI-1 > 100 µM | MDA-MB-435 > 100 µM
